Laboratory results: patent publication US20230227442A1, “HETEROALKYL DIHYDROQUINOLINE SULFONAMIDE COMPOUNDS” (AMGEN INC., priority 2020, published 2023)

Columns and labels:
Human Nav1.7 = target: T1, Human Nav1.7 (Homo sapiens, UniProt Q15858); experiment: Ionworks Barracuda (IWB) automated patch clamp assay; assay type: cell-based; details: population patch clamp, HEK cells, 4 min compound incubation at -20 mV; read-out: hNaV1.7 IWB-U IC50
T1 construct: expressed in transfected cells; host or cells: Spiking HEK cells (without Kir2.1 transfection)
Method: Ionworks Barracuda Automated Patch Clamp Assay (Same Protocol for Both Human and Mouse)
Human Nav1.7 currents were recorded in population patch-clamp mode with the IWB automated electrophysiology system (Molecular Devices, LLC, Sunnyvale, Calif.). Spiking HEK cells (without Kir2.1 transfection) were cultured and prepared for recordings as previously described for IonWorks Quattro testing^1. The external solution consisted of the following (in mM): NaCl 140, KCl 5, CaCl2 2, MgCl2 1, HEPES 10, and glucose 11, pH 7.4, with N-methyl-D-glucamine at 320 mOsmol. The internal solution consisted of the following (in mM): KCl 70, KF 70, MgCl2 0.25, HEDTA 5, and HEPES 10, pH 7.25, with Nmethyl-D-glucamine, 300 mOsmol. From a holding potential of −110 mV, currents were elicited by a train of 26 depolarizations of 150 ms duration to −20 mV at a frequency of 5 Hz. Cells were then clamped to −20 mV for a period of 4 minutes in the presence of a single concentration of test compound. Following this compound incubation period, cells were clamped to −110 mV for three seconds to recover unbound channels and put through the same 26 pulse voltage protocol as above. Peak inward current during the 26th pulse to −20 mV in the presence of compound was divided by the peak inward current evoked by the 26th pulse to −20 mV in the absence of compound to determine percent inhibition. Concentration-response curves of percent inhibition as a function of concentration were generated to calculate IC50 values as described in Kornecook, T. J.; Yin, R.; Altmann, S.; et al. Pharmacologic Characterization of AMG8379, a Potent and Selective Small Molecule Sulfonamide Antagonist of the Voltage-Gated Sodium Channel NaV1. 7. J. Pharmacol. Exp. Ther. 2017, 362, 146-160.

CYP3A4 = experiment: Human CYP 3A4 induction assay (mRNA, cryopreserved human hepatocytes); assay type: in vitro ADME; details: 72 hours, percent of control (POC); for CYP3A4 mRNA Induct Hu 2 uM POC: 2 uM test compound; for CYP3A4 mRNA Induct Hu 10 uM POC: 10 uM test compound
Method: Human CYP 3A4 Induction Assay
Cryopreserved human hepatocytes were seeded in 96-well collagen coated plates at 70,000 cells per well in hepatocyte plating media (HPM, final concentrations: lx Dulbecco's Modified Eagle's Medium, 0.1 μM dexamethasone, 10% fetal bovine serum, lx ITS, 1×PSG) followed by incubation at 37° C. under 5% CO2 and 90% relative humidity for 2 days to allow hepatocytes to form a confluent layer. On Day 3, hepatocytes were treated with either test compound or rifampin (20 μM, positive control for CYP3A induction) prepared in hepatocyte incubation media ((HIM, final concentrations: 1× William's Medium E, 0.1 μM dexamethasone, 1×ITS, 1×PSG). Treatment was performed for 72 hours with either 2 concentrations (2 μM or 10 μM) or a range of concentrations (0.001 μM to 100 μM) of the test compound to obtain full dose-response curve. Fresh media containing the relevant concentrations of the test compound was replaced every day until the samples were processed. After 72 hours of incubation, samples were processed for mRNA analysis using bDNA technology using manufacturer's instructions (Affymetrix, Fremont, Calif.). Cell viability was tested at the end of the experiment using MTT assay kit (Roche Diagnostics, Basel, Switzerland). Data was analyzed and presented as percent of control (POC) and Emax and EC50 obtained when appropriate according to guidance from Center for Drug Evaluation and Research (CDER), 2006, Guidance for Industry, Drug Interaction Studies—Study Design, Data Analysis, and Implications for Dosing and Labeling.
Cryopreserved human hepatocytes were seeded in 96-well collagen coated plates at 70,000 cells per well in hepatocyte plating media (HPM, final concentrations: lx Dulbecco's Modified Eagle's Medium, 0.1 μM dexamethasone, 10% fetal bovine serum, lx ITS, 1×PSG) followed by incubation at 37° C. under 5% CO2 and 90% relative humidity for 2 days to allow hepatocytes to form a confluent layer. On Day 3, hepatocytes were treated with either test compound or rifampin (20 μM, positive control for CYP3A induction) prepared in hepatocyte incubation media ((HIM, final concentrations: 1× William's Medium E, 0.1 μM dexamethasone, 1×ITS, 1×PSG). Treatment was performed for 72 hours with either 2 concentrations (2 μM or 10 μM) or a range of concentrations (0.001 μM to 100 μM) of the test compound to obtain full dose-response curve. Fresh media containing the relevant concentrations of the test compound was replaced every day until the samples were processed. After 72 hours of incubation, samples were processed for mRNA analysis using bDNA technology using manufacturer's instructions (Affymetrix, Fremont, Calif.). Cell viability was tested at the end of the experiment using MTT assay kit (Roche Diagnostics, Basel, Switzerland). Data was analyzed and presented as percent of control (POC) and Emax and EC50 obtained when appropriate, as described in Halladay, J. et al, 2012, An “all-inclusive” 96-well cytochrome P450 induction method: Measuring enzyme activity, mRNA levels, protein levels, and cytotoxicity from one well using cryopreserved human hepatocytes, Pharmacological and Toxicological Methods, 66:270-275.

T1 sequence (Q15858 whole entry): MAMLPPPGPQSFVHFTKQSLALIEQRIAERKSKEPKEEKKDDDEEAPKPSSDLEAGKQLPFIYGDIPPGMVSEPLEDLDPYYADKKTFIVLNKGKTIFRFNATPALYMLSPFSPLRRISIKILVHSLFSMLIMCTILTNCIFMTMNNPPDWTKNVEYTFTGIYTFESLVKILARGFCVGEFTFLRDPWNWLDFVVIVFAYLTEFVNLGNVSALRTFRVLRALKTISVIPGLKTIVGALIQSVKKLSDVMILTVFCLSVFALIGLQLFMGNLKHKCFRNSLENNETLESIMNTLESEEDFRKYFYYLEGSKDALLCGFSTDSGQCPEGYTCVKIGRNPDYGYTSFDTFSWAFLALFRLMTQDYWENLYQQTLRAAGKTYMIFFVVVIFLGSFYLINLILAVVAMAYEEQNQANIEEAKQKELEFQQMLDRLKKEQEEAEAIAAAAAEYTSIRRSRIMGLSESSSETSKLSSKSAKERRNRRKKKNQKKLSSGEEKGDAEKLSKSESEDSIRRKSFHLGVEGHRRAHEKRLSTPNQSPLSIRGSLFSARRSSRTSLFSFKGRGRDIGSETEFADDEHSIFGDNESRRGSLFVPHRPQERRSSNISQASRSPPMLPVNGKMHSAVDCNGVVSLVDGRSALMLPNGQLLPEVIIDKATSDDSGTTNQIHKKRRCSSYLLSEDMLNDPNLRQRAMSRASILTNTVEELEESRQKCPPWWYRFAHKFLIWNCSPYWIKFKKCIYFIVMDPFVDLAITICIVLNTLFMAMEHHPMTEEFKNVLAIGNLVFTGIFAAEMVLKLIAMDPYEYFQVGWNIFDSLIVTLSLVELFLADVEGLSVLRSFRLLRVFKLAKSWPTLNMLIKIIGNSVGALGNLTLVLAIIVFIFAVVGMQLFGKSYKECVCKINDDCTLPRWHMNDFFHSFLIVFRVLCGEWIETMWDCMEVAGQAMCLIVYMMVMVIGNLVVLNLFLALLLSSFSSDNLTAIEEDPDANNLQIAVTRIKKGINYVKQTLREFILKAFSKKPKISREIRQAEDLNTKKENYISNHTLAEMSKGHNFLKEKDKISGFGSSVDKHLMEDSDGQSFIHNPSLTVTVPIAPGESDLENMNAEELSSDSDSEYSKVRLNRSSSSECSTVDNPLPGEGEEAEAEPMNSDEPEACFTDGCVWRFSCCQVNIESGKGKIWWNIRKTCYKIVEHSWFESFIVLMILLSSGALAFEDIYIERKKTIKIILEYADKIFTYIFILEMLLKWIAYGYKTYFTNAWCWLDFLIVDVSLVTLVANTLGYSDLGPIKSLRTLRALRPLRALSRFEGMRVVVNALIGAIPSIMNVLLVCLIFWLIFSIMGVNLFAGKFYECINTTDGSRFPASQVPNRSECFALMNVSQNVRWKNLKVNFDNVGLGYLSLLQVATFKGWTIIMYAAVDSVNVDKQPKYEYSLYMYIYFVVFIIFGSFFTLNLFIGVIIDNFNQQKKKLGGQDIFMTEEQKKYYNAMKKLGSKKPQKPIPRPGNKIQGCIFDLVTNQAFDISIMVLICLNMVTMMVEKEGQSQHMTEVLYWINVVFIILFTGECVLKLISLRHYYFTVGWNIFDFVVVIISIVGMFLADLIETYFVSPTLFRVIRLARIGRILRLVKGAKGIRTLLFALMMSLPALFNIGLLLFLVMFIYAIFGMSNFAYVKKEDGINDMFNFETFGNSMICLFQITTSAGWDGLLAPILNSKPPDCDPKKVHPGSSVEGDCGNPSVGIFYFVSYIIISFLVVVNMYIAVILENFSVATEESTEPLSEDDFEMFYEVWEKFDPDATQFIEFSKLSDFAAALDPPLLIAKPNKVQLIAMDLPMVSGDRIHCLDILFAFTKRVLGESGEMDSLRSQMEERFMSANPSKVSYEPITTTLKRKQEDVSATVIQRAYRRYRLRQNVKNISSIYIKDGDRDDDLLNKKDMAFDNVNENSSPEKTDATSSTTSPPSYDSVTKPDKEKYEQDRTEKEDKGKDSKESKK

Row | IC50 (Human Nav1.7) | CYP3A4 mRNA Induct Hu 2 uM POC (CYP3A4) | CYP3A4 mRNA Induct Hu 10 uM POC (CYP3A4) | SMILES
1 | 34 nM | 14.8% | 41.5% | COc1cc(OCCC(F)(F)F)c(F)cc1-n1c(=O)ccc2cc(S(=O)(=O)Nc3ccon3)c(F)cc21 (atropisomer, axis not shown; (P)) [Example 22, (P)-7-fluoro-1-(5-fluoro-2-methoxy-4-(3,3,3-trifluoropropoxy)phenyl)-N-(isoxazol-3-yl)-2-oxo-1,2-dihydroquinoline-6-sulfonamide]
2 | 8 nM | – | – | COc1cc(SC(F)(F)F)c(Cl)cc1-n1c(=O)ccc2cc(S(=O)(=O)Nc3ccon3)ccc21 (atropisomer, axis not shown; (P)) [Example 2, (P)-1-(5-chloro-2-methoxy-4-((trifluoromethyl)thio)phenyl)-N-(isoxazol-3-yl)-2-oxo-1,2-dihydroquinoline-6-sulfonamide]
3 | 21 nM | 10.8% | 35.7% | COc1cc(OCC(F)(F)F)c(F)cc1-n1c(=O)ccc2cc(S(=O)(=O)Nc3ccon3)ccc21 (atropisomer, axis not shown; (P)) [Example 10, (P)-1-(5-fluoro-2-methoxy-4-(2,2,2-trifluoroethoxy)phenyl)-N-(isoxazol-3-yl)-2-oxo-1,2-dihydroquinoline-6-sulfonamide]
4 | 32 nM | 0.4% | 1.8% | COc1cc(O[C@H](C)C(F)(F)F)c(F)cc1-n1c(=O)ccc2cc(S(=O)(=O)Nc3ccon3)ccc21 (atropisomer, axis not shown; (P)) [Example 21, (P)-(R)-1-(5-fluoro-2-methoxy-4-((1,1,1-trifluoropropan-2-yl)oxy)phenyl)-N-(isoxazol-3-yl)-2-oxo-1,2-dihydroquinoline-6-sulfonamide]
5 | 23 nM | 3.6% | 21.4% | COc1cc(OCC(F)(F)F)c(F)cc1-n1c(=O)ccc2cc(S(=O)(=O)Nc3ccon3)c(F)cc21 [Example 14]
6 | 21 nM | 7.8% | 22.2% | COc1cc(OC(F)(F)F)c(F)cc1-n1c(=O)ccc2cc(S(=O)(=O)Nc3ccon3)ccc21 (atropisomer, axis not shown; (P)) [Example 9, (P)-1-(5-fluoro-2-methoxy-4-(trifluoromethoxy)phenyl)-N-(isoxazol-3-yl)-2-oxo-1,2-dihydroquinoline-6-sulfonamide]
7 | 102 nM | 11.5% | 38.0% | COc1cc(OCC(F)(F)F)c(F)cc1-n1c(=O)c(F)cc2cc(S(=O)(=O)Nc3ccon3)ccc21 (atropisomer, axis not shown; (P)) [Example 25, (P)-3-fluoro-1-(5-fluoro-2-methoxy-4-(2,2,2-trifluoroethoxy)phenyl)-N-(isoxazol-3-yl)-2-oxo-1,2-dihydroquinoline-6-sulfonamide]
8 | 7 nM | 1.7% | – | COc1cc(COC(F)(F)F)c(Cl)cc1-n1c(=O)ccc2cc(S(=O)(=O)Nc3ccon3)ccc21 (atropisomer, axis not shown; (P)) [Example 1, (P)-1-(5-chloro-2-methoxy-4-((trifluoromethoxy)methyl)phenyl)-N-(isoxazol-3-yl)-2-oxo-1,2-dihydroquinoline-6-sulfonamide]
9 | 9 nM | 10.1% | 35.4% | COc1cc(OC(F)(F)F)c(Cl)cc1-n1c(=O)ccc2cc(S(=O)(=O)Nc3ccon3)ccc21 (atropisomer, axis not shown; (P)) [Example 3, (P)-1-(5-chloro-2-methoxy-4-(trifluoromethoxy)phenyl)-N-(isoxazol-3-yl)-2-oxo-1,2-dihydroquinoline-6-sulfonamide]
10 | 39 nM | 7.4% | 25.1% | COc1cc(SC(F)(F)F)ccc1-n1c(=O)ccc2cc(S(=O)(=O)Nc3ccon3)ccc21 (atropisomer, axis not shown; (P)) [Example 23]
11 | 29 nM | 17.4% | 49.2% | COc1cc(SC(F)(F)F)c(F)cc1-n1c(=O)ccc2cc(S(=O)(=O)Nc3ncccn3)c(F)cc21 (atropisomer, axis not shown; (P)) [Example 19, (P)-7-fluoro-1-(5-fluoro-2-methoxy-4-((trifluoromethyl)thio)phenyl)-2-oxo-N-(pyrimidin-2-yl)-1,2-dihydroquinoline-6-sulfonamide]
12 | 14 nM | 20.2% | 61.2% | COc1cc(SC(F)(F)F)c(C)cc1-n1c(=O)ccc2cc(S(=O)(=O)Nc3ccon3)ccc21 [Example 12, P-N-(isoxazol-3-yl)-1-(2-methoxy-5-methyl-4-((trifluoromethyl)thio)phenyl)-2-oxo-1,2-dihydroquinoline-6-sulfonamide]
13 | 11 nM | 18.3% | 30.1% | COc1cc(COC(F)(F)F)c(F)cc1-n1c(=O)ccc2cc(S(=O)(=O)Nc3ccon3)c(F)cc21 (atropisomer, axis not shown; (P)) [Example 6, (P)-7-fluoro-1-(5-fluoro-2-methoxy-4-((trifluoromethoxy)methyl)phenyl)-N-(isoxazol-3-yl)-2-oxo-1,2-dihydroquinoline-6-sulfonamide]
14 | 21 nM | 7.0% | 35.3% | COc1cc(O[C@H](C)C(F)(F)F)c(F)cc1-n1c(=O)ccc2cc(S(=O)(=O)Nc3ncccn3)ccc21 [Example 13, P-(R)-1-(5-fluoro-2-methoxy-4-((1,1,1-trifluoropropan-2-yl)oxy)phenyl)-2-oxo-N-(pyrimidin-2-yl)-1,2-dihydroquinoline-6-sulfonamide]
15 | 11 nM | 20.9% | 54.2% | COc1cc(SC(F)(F)F)c(F)cc1-n1c(=O)ccc2cc(S(=O)(=O)Nc3ccon3)c(F)cc21 (atropisomer, axis not shown; (P)) [Example 7, (P)-7-fluoro-1-(5-fluoro-2-methoxy-4-((trifluoromethyl)thio)phenyl)-N-(isoxazol-3-yl)-2-oxo-1,2-dihydroquinoline-6-sulfonamide]
16 | 185 nM | 5.7% | 25.6% | COc1nc(SC(F)(F)F)c(F)cc1-n1c(=O)ccc2cc(S(=O)(=O)Nc3ccon3)ccc21 (atropisomer, axis not shown; (P)) [Example 26, (P)-1-(5-fluoro-2-methoxy-6-((trifluoromethyl)thio)pyridin-3-yl)-N-(isoxazol-3-yl)-2-oxo-1,2-dihydroquinoline-6-sulfonamide]
